# Measurements published in US20210261512A1, “NOVEL COMPOUNDS” (INFLAZOME LIMITED, priority 2018, published 2021).
# Key:
# [1] = target: T1, NLRP3 (Homo sapiens, UniProt Q96P20); test: Human whole blood IL1β release assay; format: cell-based; conditions: LPS 1 μg/ml, nigericin 10 μM, IL-1β AlphaLisa, 10 μM top dose (Example 2: top dose of 30 μM), read-out: HWB IC50
# Description: For systemic delivery, the ability to inhibit NLRP3 when the compounds are present within the bloodstream is of great importance. For this reason, the NLRP3 inhibitory activity of a number of compounds in human whole blood was investigated in accordance with the following protocol.
# Human whole blood in sodium-heparin or lithium-heparin tubes was obtained from healthy donors from a volunteer donor panel. • 1. Plate out 80 μl of whole blood containing 1 μg/ml of LPS in 96-well, clear bottom cell culture plate (Corning #3585) • 2. Add 10 μl compound (8 points half-log dilution with 10 μM top dose, unless stated otherwise) or vehicle (DMSO 0.1% FAC) to the appropriate wells • 3. Incubate for 3 hrs at 37° C., 5% CO2 • 4. Add 10 μl nigericin (Sigma #N7143) (10 μM FAC) to all wells • 5. Incubate for 1 hr at 37° C., 5% CO2 • 6. At the end of the incubation period, spin plates at 300×g for 5 mins to pellet cells and remove 20 μl of supernatant and add to 96-well v-bottom plates for IL-1β analysis (note: these plates containing the supernatants can be stored at −80° C. to be analysed at a later date) • 7. IL-1β was measured according to the manufacturer protocol (Perkin Elmer-AlphaLisa IL-1 Kit AL220F-5000) • 8. IC50 data is fitted to a non-linear regression equation (log inhibitor vs response-variable slope 4-parameters)
# [2] = target: T1, NLRP3; test: THP-1 cells pyroptosis assay; format: cell-based; set-up: Seed THP-1 cells (25,000 cells/well) containing 1.0 μg/ml LPS; host or cells: THP-1; conditions: LPS 1.0 μg/ml, nigericin 5 μM, resazurin readout, 10 μM top dose (Example 2: top dose of 30 μM)
# Procedure, shortened: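 THP-1 cells (25,000/well) primed with 1 μg/ml LPS in serum-free RPMI, treated with compound (8-point dilution, 10 μM top unless stated; 0.1% DMSO) 3 h at 37°C, then nigericin 5 μM 1 h. Viability read by resazurin (100 μM, 1-2 h) fluorescence; IC50 from 4-parameter fit.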
# [3] = PK, intravenous administration; format: in vivo; conditions: rat, plasma, male Sprague Dawley rats, dose about 1 mg/kg; for Vd: read-out: Vdss
# Description: Pharmacokinetic parameters were determined in male Sprague Dawley rats (Vital River Laboratory Animal Technology Co Ltd, Beijing, China, 6-9 weeks old). Animals were maintained under a 12 h light/dark cycle. Animals had free access to food and water, except that orally dosed animals were food deprived overnight prior to the study.
# For intravenous administration, compounds were formulated as a solution (in DMSO:water [10:90] or in DMSO:PBS [10:90]) in 2 mL/kg dosing volume and administered via tail vein. For oral administration, compounds were formulated as a solution (in 0.5% methylcellulose in water) in […] dosing volume and administered orally.
# Serial blood samples (about 200 μL) were taken from each animal at each of 8 time-points post dose ([…], 0.25, 0.5, 1, 2, 4, 8 and 24 h). Samples were held on ice for no longer than 30 minutes before centrifugation (5,696 rpm (3,000 g) for 15 minutes) for plasma generation. Plasma was frozen on dry ice prior to bioanalysis. PK parameters were generated from LC-MS/MS data using Phoenix WinNonlin 6.3 software.
# T1 sequence (Q96P20 whole entry): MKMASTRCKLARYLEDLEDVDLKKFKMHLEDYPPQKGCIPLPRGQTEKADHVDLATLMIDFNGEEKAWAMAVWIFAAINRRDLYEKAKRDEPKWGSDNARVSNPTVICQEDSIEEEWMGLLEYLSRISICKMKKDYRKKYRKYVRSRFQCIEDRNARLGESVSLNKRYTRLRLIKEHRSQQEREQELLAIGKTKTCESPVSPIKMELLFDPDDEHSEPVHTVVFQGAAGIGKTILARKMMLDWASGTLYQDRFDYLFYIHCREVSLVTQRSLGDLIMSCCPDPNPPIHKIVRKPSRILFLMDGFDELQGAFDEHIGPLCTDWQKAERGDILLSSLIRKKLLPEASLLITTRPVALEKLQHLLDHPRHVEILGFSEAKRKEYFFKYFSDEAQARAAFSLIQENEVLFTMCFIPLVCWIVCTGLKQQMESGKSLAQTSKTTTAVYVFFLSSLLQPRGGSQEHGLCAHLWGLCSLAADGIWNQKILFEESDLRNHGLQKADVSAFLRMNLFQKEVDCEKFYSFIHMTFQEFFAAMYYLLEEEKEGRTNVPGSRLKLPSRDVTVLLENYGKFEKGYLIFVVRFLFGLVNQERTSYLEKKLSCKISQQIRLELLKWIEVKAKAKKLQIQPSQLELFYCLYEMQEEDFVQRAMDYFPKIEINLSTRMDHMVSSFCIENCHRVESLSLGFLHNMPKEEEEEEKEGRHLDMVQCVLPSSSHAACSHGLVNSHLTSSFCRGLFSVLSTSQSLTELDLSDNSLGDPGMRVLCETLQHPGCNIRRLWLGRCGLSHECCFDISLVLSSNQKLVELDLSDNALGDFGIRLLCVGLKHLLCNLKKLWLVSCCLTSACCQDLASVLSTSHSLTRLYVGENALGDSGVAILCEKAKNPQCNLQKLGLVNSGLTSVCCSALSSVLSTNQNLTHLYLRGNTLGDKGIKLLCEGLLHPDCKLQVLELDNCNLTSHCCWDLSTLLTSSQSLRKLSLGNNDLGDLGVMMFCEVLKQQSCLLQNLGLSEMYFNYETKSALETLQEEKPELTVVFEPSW
SMILES,IC50 [1] [µM],IC50 [2] [µM],AUC [3] [µg·h/mL],clearance [3] [L/h/kg],half-life [3] [min],Vd [3] [L/kg]
"O=S(=O)(Cc1ccccc1)c1nnc(Nc2c3c(cc4c2CCC4)CCC3)[nH]1 [Example 2, 5-(benzylsulfonyl)-N-(1,2,3,5,6,7-hexahydro-s-indacen-4-yl)-4H-1,2,4-triazol-3-amine]",≤ 30,≤ 10,,,,
"CC(c1cc(S(=O)(=O)c2nnc(Nc3c4c(cc5c3CCC5)CCC4)[nH]2)nn1C)N(C)C (stereo not drawn) [Example 5, 5-((5-(1-(dimethylamino)ethyl)-1-methyl-1H-pyrazol-3-yl)sulfonyl)-N-(1,2,3,5,6,7-hexahydro-s-indacen-4-yl)-4H-1,2,4-triazol-3-amine]",≤ 10,≤ 0.5,,,,
"COC1(c2cc(S(=O)(=O)c3nnc(Nc4c5c(cc6c4CCC6)CCC5)[nH]3)nn2C)COC1 [Example 12, N-(1,2,3,5,6,7-hexahydro-s-indacen-4-yl)-5-((5-(3-methoxyoxetan-3-yl)-1-methyl-1H-pyrazol-3-yl)sulfonyl)-4H-1,2,4-triazol-3-amine]",≤ 10,≤ 1,,,,
"COC(C)(C)Cn1ccc(S(=O)(=O)c2nnc(Nc3c4c(cc5c3CCC5)CCC4)[nH]2)n1 [Example 18, N-(1,2,3,5,6,7-hexahydro-s-indacen-4-yl)-5-((1-(2-methoxy-2-methylpropyl)-1H-pyrazol-3-yl)sulfonyl)-4H-1,2,4-triazol-3-amine]",≤ 10,≤ 0.5,,,,
"COc1cc(-c2ccc3c(c2Nc2nnc(S(=O)(=O)c4ccn(C(C)C)n4)[nH]2)CCC3)ccn1 [Example 34, 5-((1-isopropyl-1H-pyrazol-3-yl)sulfonyl)-N-(5-(2-methoxypyridin-4-yl)-2,3-dihydro-1H-inden-4-yl)-4H-1,2,4-triazol-3-amine]",≤ 5,≤ 1,,,,
"CC(C)n1ccc(S(=O)(=O)c2nnc(Nc3c(-c4ccncc4)cc(F)c4c3CCC4)[nH]2)n1 [Example 36, N-(7-fluoro-5-(pyridin-4-yl)-2,3-dihydro-1H-inden-4-yl)-5-((1-isopropyl-1H-pyrazol-3-yl)sulfonyl)-4H-1,2,4-triazol-3-amine]",≤ 10,≤ 5,,,,
"CN(C)Cc1cccc(S(=O)(=O)c2nnc(Nc3c4c(cc5c3CCC5)CCC4)[nH]2)c1 [Example 44, 5-((3-((dimethylamino)methyl)phenyl)sulfonyl)-N-(1,2,3,5,6,7-hexahydro-s-indacen-4-yl)-4H-1,2,4-triazol-3-amine]",≤ 5,≤ 0.5,,,,
"CCN(CC)CCS(=O)(=O)c1nnc(Nc2c3c(cc4c2CCC4)CCC3)[nH]1 [Example 46, 5-((2-(diethylamino)ethyl)sulfonyl)-N-(1,2,3,5,6,7-hexahydro-s-indacen-4-yl)-4H-1,2,4-triazol-3-amine]",≤ 5,≤ 1,,,,
"CN1CCCCC1CCS(=O)(=O)c1nnc(Nc2c3c(cc4c2CCC4)CCC3)[nH]1 (stereo not drawn) [Example 59, N-(1,2,3,5,6,7-Hexahydro-s-indacen-4-yl)-3-((2-(1-methylpiperidin-2-yl)ethyl)sulfonyl)-1H-1,2,4-triazol-5-amine]",≤ 1,≤ 0.5,,,,
"CCN(CC)CCCS(=O)(=O)c1nnc(Nc2c(-c3ccncc3)cc(F)c3c2CCC3)[nH]1 [Example 77, 5-((3-(diethylamino)propyl)sulfonyl)-N-(7-fluoro-5-(pyridin-4-yl)-2,3-dihydro-1H-inden-4-yl)-4H-1,2,4-triazol-3-amine]",≤ 5,≤ 1,,,,
"CCN(CC)CCN(C)S(=O)(=O)c1nnc(Nc2c3c(cc4c2CCC4)CCC3)[nH]1 [Example 80, N-(2-(diethylamino)ethyl)-3-((1,2,3,5,6,7-hexahydro-s-indacen-4-yl)amino)-N-methyl-1H-1,2,4-triazole-5-sulfonamide]",≤ 5,≤ 1,,,,
"CN1CCC(N(C)S(=O)(=O)c2nnc(Nc3c4c(cc5c3CCC5)CCC4)[nH]2)C1 (stereo not drawn) [Example 87, 5-((1,2,3,5,6,7-hexahydro-s-indacen-4-yl)amino)-N-methyl-N-(1-methylpyrrolidin-3-yl)-4H-1,2,4-triazole-3-sulfonamide]",≤ 1,≤ 5,,,,
"O=S(=O)(NCCN1CCC1)c1nnc(Nc2c3c(cc4c2CCC4)CCC3)[nH]1 [Example 89, N-(2-(azetidin-1-yl)ethyl)-5-((1,2,3,5,6,7-hexahydro-s-indacen-4-yl)amino)-4H-1,2,4-triazole-3-sulfonamide]",≤ 5,≤ 1,,,,
"CN(C)C1CN(S(=O)(=O)c2nnc(Nc3c4c(cc5c3CCC5)CCC4)[nH]2)C1 [Example 91, 5-((3-(dimethylamino)azetidin-1-yl)sulfonyl)-N-(1,2,3,5,6,7-hexahydro-s-indacen-4-yl)-4H-1,2,4-triazol-3-amine]",≤ 5,≤ 5,,,,
"CN1CCC2(C1)CN(S(=O)(=O)c1nnc(Nc3c(-c4ccnc(OC(F)F)c4)ccc4c3CCC4)[nH]1)C2 [Example 213, N-(5-(2-(difluoromethoxy)pyridin-4-yl)-2,3-dihydro-1H-inden-4-yl)-5-((6-methyl-2,6-diazaspiro[3.4]octan-2-yl)sulfonyl)-4H-1,2,4-triazol-3-amine]",,≤ 0.5,0.186,5.44,43.8,4.21
"CN1CCC(Oc2cc(-c3ccc4c(c3Nc3nnc(S(C)(=O)=O)[nH]3)CCC4)ccn2)CC1 [Example 235, N-(5-(2-((1-methylpiperidin-4-yl)oxy)pyridin-4-yl)-2,3-dihydro-1H-inden-4-yl)-5-(methylsulfonyl)-4H-1,2,4-triazol-3-amine]",,≤ 10,0.43,2.32,130,0.935
"CS(=O)(=O)c1nnc(Nc2c(-c3ccnc(OC4CCCOC4)c3)ccc3c2CCC3)[nH]1 (stereo not drawn) [Example 236, 5-(methylsulfonyl)-N-(5-(2-((tetrahydro-2H-pyran-3-yl)oxy)pyridin-4-yl)-2,3-dihydro-1H-inden-4-yl)-4H-1,2,4-triazol-3-amine]",,≤ 10,3.16,0.317,53.5,0.149
"CN1CCOCC12CCN(S(=O)(=O)c1nnc(Nc3c4c(cc5c3CCC5)CCC4)[nH]1)CC2 [Example 296, N-(1,2,3,5,6,7-hexahydro-s-indacen-4-yl)-5-((1-methyl-4-oxa-1,9-diazaspiro[5.5]undecan-9-yl)sulfonyl)-4H-1,2,4-triazol-3-amine]",,≤ 0.5,0.315,3.17,35.4,1.7
"Cc1cc(-c2cc(F)cc(C(C)C)c2Nc2nnc(S(=O)(=O)N3CCC(N(C)C)CC3)[nH]2)ccn1 [Example 302, 1-((5-((4-fluoro-2-isopropyl-6-(2-methylpyridin-4-yl)phenyl)amino)-1H-1,2,4-triazol-3-yl)sulfonyl)-N,N-dimethylpiperidin-4-amine]",,≤ 5,0.153,6.54,80.4,4.03
"COc1cc(-c2ccc3c(c2Nc2nnc(S(=O)(=O)c4ccccc4C#N)[nH]2)CCC3)ccn1 [Example 310, 2-((5-((5-(2-methoxypyridin-4-yl)-2,3-dihydro-1H-inden-4-yl)amino)-4H-1,2,4-triazol-3-yl)sulfonyl)benzonitrile]",,≤ 5,0.221,4.52,27.5,1.45
"CC(C)n1ccc(S(=O)(=O)c2nnc(Nc3c4c(cc5c3CCC5)CCC4)[nH]2)n1 [Example 337, N-(1,2,3,5,6,7-hexahydro-s-indacen-4-yl)-5-((1-isopropyl-1H-pyrazol-3-yl)sulfonyl)-4H-1,2,4-triazol-3-amine]",,≤ 0.5,0.981,1.02,35.7,0.54
